These results are taken from patent US11730743B2, “Protection of cells from degeneration and treatment of geographic atrophy” (University of Kentucky Research Foundation, priority 2012, dated 2023).

One assay deals with Caspase-3. Briefly: Caspase-3 activation in the RPE of wild-type mice. It is filed as in vivo. The note with it: inhibitor intravitreous. On the procedure:
Drug treatments. siRNAs formulated in siRNA buffer (20 mM KCL, 0.2 mM MgCl2 in HEPES buffer at pH 7.5; Dharmacon) or phosphate buffered saline (PBS; Sigma-Aldrich); the TLR4 antagonist Ultra Pure Rhodobacter sphaeroides LPS (LPS-RS, InvivoGen), a peptide inhibitor of MyD88 homodimerization IMG-2005 (IMGENEX), control inhibitor (IMGENEX), recombinant IL-18 (Medical & Biological Laboratories), neutralizing rat antibodies against mouse IL-1β (IMGENEX), neutralizing rat antibodies against mouse IL-18 (Medical & Biological Laboratories), isotype control IgGs (R&D Systems or eBioscience as appropriate), Caspase-1 inhibitor Z-WEHD-FMK (R&D Systems), Caspase-3 inhibitor Z-DEVD-FMK (R&D Systems), Caspase control inhibitor Z-FA-FMK (R&D Systems), (2R,4R)-APDC (Enzo Life Sciences), Glipizide (Sigma-Aldrich), Glyburide (Sigma-Aldrich), and P2X7 receptor antagonist A438079 (Tocris Bioscience) were dissolved in phosphate buffered saline (PBS; Sigma-Aldrich) or dimethyl sulfoxide (DMSO; Sigma-Aldrich), and injected into the vitreous humor in a total volume of 1 μL with a 33-gauge Exmire microsyringe (Ito Corporation). […] As a control, Luc siRNA-chol (17+2 nt) was used with identical dosages.
Caspase-3 activity. The caspase-3 activity was measured using Caspase-3 Fluorimetric Assay (R&D Systems) according to the manufacturer's instruction.

The test system of the next assay is Dicer1f/f mice. Nature of the assay: RPE degeneration induced by subretinal AAV1-BEST1-Cre (DICER1 loss). It is filed as in vivo. The note with it: inhibitor intravitreous. On the procedure: Immunolabeling. Human eyes fixed in 2-4% paraformaldehyde were prepared as eyecups, cryoprotected in 30% sucrose, embedded in optimal cutting temperature compound (Tissue-Tek OCT; Sakura Finetek), and cryosectioned into 10 μm sections. Depigmentation was achieved using 0.25% potassium permanganate and 0.1% oxalic acid. Immunohistochemical staining was performed with the rabbit antibody against NLRP3 (1:100, Sigma Aldrich) or rabbit antibody against Caspase-1 (prediluted, AbCam). Isotype IgG was substituted for the primary antibody to assess the specificity of the staining. Bound antibody was detected with biotin-conjugated secondary antibodies, followed by incubation with ABC reagent and visualized by Vector Blue (Vector Laboratories). Levamisole (Vector Laboratories) was used to block endogenous alkaline phosphatase activity. Slides were washed in PBS, counterstained with neutral red (Fisher Scientific), rinsed with deionized water, air dried, and then mounted in Vectamount (Vector Laboratories). Fluorescent labeling of human tissue was performed with the rabbit antibody against PYCARD (1:50, Clone N-15, Santa Cruz Biotechnology). Immunolabeling was visualized by fluorescently conjugated anti-rabbit secondary antibody (Invitrogen). Tissue autofluorescence was quenched by incubating the sections in 0.3% Sudan black (Fisher Scientific). […]

The test system of another assay is IRAK1/4. Briefly: Western blot of phosphorylated IRAK1/4 in human RPE cells. It is filed as cell-based. Conditions: normalized to Vinculin. The procedure: Protein abundance and activity. Protein abundance was assessed by Western blot analysis using primary antibodies recognizing Caspase-1 (1:500; Invitrogen), pIRAK1 (1:500; Thermo Scientific), pIRAK4 (1:500, Abbomax, Inc), PYCARD (1:200, Santa Cruz Biotechnology), NLRP3 (1:500, Enzo Life Sciences) and Vinculin (1:1,000; Sigma-Aldrich). Caspase-1 activity was visualized using Caspalux1 E1D2 (OncoImmunin) reagent according to the manufacturer's instructions.
Western blotting. Tissues or cells were homogenized in lysis buffer (10 mM Tris base, pH 7.4, 150 mM NaCl, 1 mM EDTA, 1 mM EGTA, 1% Triton X-100, 0.5% NP-40, protease and phosphatase inhibitor cocktail (Roche)). Protein concentrations were determined using a Bradford assay kit (Bio-Rad) with bovine serum albumin as a standard. Proteins (40-100 μg) were run on NuPAGE Bis-Tris gels (Invitrogen) and transferred to Immun-Blot PVDF membranes (Bio-Rad). Cells were scraped in hot Laemmli buffer (62.5 mM Tris base, pH 6.8, 2% SDS, 5% 2-Mercaptoethanol, 10% Glycerol, 0.01% Bromophenol Blue). Samples were boiled and run on 4-20% NuPAGE Tris-Glycine gels (Invitrogen). […] Protein loading was assessed by immunoblotting using an anti-Vinculin antibody (1:1,000; Sigma-Aldrich). […]
(A western blot detects proteins with antibodies after separation by electrophoresis.)

For the substance “MyD88 inhibitory peptide: peptide inhibitor of MyD88 homodimerization IMG-2005 (IMGENEX)”, the “Alu RNA-induced Caspase-3 activation in the RPE” value in the assay with Caspase-3 is given as “inhibited”. In the assay on Dicer1f/f mice, the “AAV1-BEST1-Cre-induced RPE degeneration” value is listed as “blocked”. Also, in the assay with IRAK1/4, the “Alu RNA-induced phosphorylation of IRAK1/4” value is “reduced”.
